Experiments:
milkweed bug = test: Topical application, milkweed bug; type: in vivo, Oncopeltus fasciatus; conditions: MWB; for Topical % Kill @ 5000 ng/insect: 24 hours
Procedure: (§1) Topical Application: The compounds of this invention were tested for insecticidal activity against various insect species selected from southern armyworm (Spodoptera eridania), Mexican bean beetle, (Epilachna varivestis), milkweed bug (Oncopeltus fasciatus), and cabbage looper (Tricoplusia ni) by applying to the second or third dorsal thoracic segment of each larvae a one microliter droplet containing 5 mg/mL of test compound in acetone (5000 ng/insect). The test was allowed to stand 24 hours after application and was then read to determine the percent kill.
(§2) To determine the LD50 of the compounds, the topical application test was repeated by applying various amounts of toxicant. Also included among the species tested against for this determination were tobacco budworm (Heliothis virescens), beet armyworm (Spodoptera exigua), and boll weevil (Anthonomus grandis).

southern armyworm [1] = test: Topical application, southern armyworm; type: in vivo, Spodoptera eridania; conditions: SAW; for Topical % Kill @ 5000 ng/insect: 24 hours
Procedure: as §1, §2

twospotted spider mite = test: Foliar application, twospotted spider mite; type: in vivo; conditions: Tetranychus urticae, TSM, foliar, 48 hours, read-out: Foliar % Kill (ppm)
Procedure: (§3) Foliar Application: The activity of some of the compounds of the invention against various test species selected from pea aphid (Acyrthosiphon pisum), twospotted spider mite (Tetranychus urticae), southern armyworm (Spodoptera eridania), Mexican bean beetle (Epilachna varivestis), and cabbage looper (Tricoplusia ni) was determined by foliar application of the test compound. The test materials were formulated as aqueous solutions containing 10% acetone and 0.25% acetylphenoxypolyethoxyethanol. Activity against pea aphid was determined on English fava bean plants the leaves of which were sprayed to runoff with various concentrations of test solution prior to infestation with adult aphids. Activity against twospotted spider mite was evaluated on pinto bean plants whose leaves were sprayed to runoff with various concentrations of test solution after infestation with adult mites. Activity against the remaining species was evaluated on pinto bean plants whose leaves were sprayed to runoff with various concentrations of test solution before infestation with the appropriate immature insects. Mortality was read approximately 48 hours after treatment.

pea aphid = test: Foliar application, pea aphid; type: in vivo; conditions: Acyrthosiphon pisum, PA, foliar, 48 hours, read-out: Foliar % Kill (ppm)
Procedure: as §3

Mexican bean beetle [2] = test: Foliar application, Mexican bean beetle; type: in vivo; conditions: Epilachna varivestis, MBB, foliar, 48 hours, read-out: Foliar % Kill (ppm)
Procedure: as §3

Mexican bean beetle [3] = test: Topical application, Mexican bean beetle; type: in vivo, Epilachna varivestis; conditions: MBB; for Topical % Kill @ 5000 ng/insect: 24 hours
Procedure: as §1, §2

southern armyworm [4] = test: Foliar application, southern armyworm; type: in vivo; conditions: Spodoptera eridania, SAW, foliar, 48 hours, read-out: Foliar % Kill (ppm)
Procedure: as §3

cabbage looper = test: Topical application, cabbage looper; type: in vivo, Tricoplusia ni; conditions: CL; for Topical % Kill @ 5000 ng/insect: 24 hours
Procedure: as §1, §2

tobacco budworm = test: Topical application, tobacco budworm; type: in vivo, Heliothis virescens; conditions: TBW
Procedure: as §1, §2

| SMILES | Topical LD50 (milkweed bug) | Topical % Kill @ 5000 ng/insect (milkweed bug) | Topical LD50 (southern armyworm [1]) | Topical % Kill @ 5000 ng/insect (southern armyworm [1]) | mortality at 500 ppm (twospotted spider mite) | mortality at 500 ppm (pea aphid) | mortality at 64 ppm (Mexican bean beetle [2]) | Topical LD50 (Mexican bean beetle [3]) | Topical % Kill @ 5000 ng/insect (Mexican bean beetle [3]) | mortality at 500 ppm (southern armyworm [4]) | Topical LD50 (cabbage looper) | Topical % Kill @ 5000 ng/insect (cabbage looper) | mortality at 16 ppm (twospotted spider mite) | mortality at 64 ppm (twospotted spider mite; 64 ppm) | mortality at 512 ppm (pea aphid) | mortality at 512 ppm (Mexican bean beetle [2]) | mortality at 512 ppm (southern armyworm [4]) | Topical LD50 (tobacco budworm) |
| --- | --- | --- | --- | --- | --- | --- | --- | --- | --- | --- | --- | --- | --- | --- | --- | --- | --- | --- |
| Cc1c(COC(=O)[C@H]2[C@@H](C=C(Cl)C(F)(F)F)C2(C)C)cccc1-c1ccccn1 (relative stereo) [s, [2-methyl-3-(pyridin-2-yl)phenyl]methyl cis-3-(2-chloro-3,3,3-trifluoro-1-propenyl)-2,2-dimethylcyclopropanecarboxylate] | 607 ng/insect | 100% | 60 ng/insect | 100% | 80% | 100% | 60% | 38 ng/insect | 100% | 100% |  |  |  |  |  |  |  |  |
| CC1(C)C(C=C(Cl)Cl)C1C(=O)OCc1cccc(-c2cccs2)c1 (mixture of isomers) [a, 3-(2-thienyl)phenylmethyl cis,trans-3-(2,2-dichloroethenyl)-2,2-dimethylcyclopropanecarboxylate] |  |  | 148 ng/insect | 100% |  |  |  |  |  |  | 3649 ng/insect | 100% |  |  |  |  |  |  |
| Cc1c(COC(=O)[C@@H]2[C@H](C=C(Cl)Cl)C2(C)C)cccc1-c1cnccn1 (relative stereo) [q, [2-methyl-3-(pyrazinyl)phenyl]methyl cis-(2,2-dichloroethenyl)-2,2-dimethylcyclopropanecarboxylate] | 4915 ng/insect | 90% | 2387 ng/insect | 90% |  | 100% | 55% | 269 ng/insect | 90% | 85% |  |  | 0% |  |  |  |  |  |
| CC1(C)[C@H](C=C(Cl)C(F)(F)F)[C@@H]1C(=O)OCc1cccc(-c2ccco2)c1 (relative stereo) [k, [3-(2-furanyl)phenyl]methyl cis-3-(2-chloro-3,3,3-trifluoro-1-propenyl)-2,2-dimethylcyclopropanecarboxylate] |  | 40% | 366 ng/insect | 100% |  |  |  | 510 ng/insect | 90% |  |  |  |  | 0% | 100% | 100% | 100% |  |
| CC1(C)[C@@H](C=C(Cl)Cl)[C@@H]1C(=O)OCc1cccc(-c2cccs2)c1 (relative stereo) [c, 3-(2-thienyl)phenylmethyl trans-3-(2,2-dichloroethenyl)-2,2-dimethylcyclopropanecarboxylate] |  |  | 421 ng/insect | 100% |  |  |  |  |  |  |  | 0% |  |  |  |  |  |  |
| CC1(C)[C@H](C=C(Cl)Cl)[C@@H]1C(=O)OCc1cccc(-c2cccs2)c1 (relative stereo) [b, 3-(2-thienyl)phenylmethyl cis-3-(2,2-dichloroethenyl)-2,2-dimethylcyclopropanecarboxylate] | 1715 ng/insect |  | 54 ng/insect |  | 0% |  |  | 471 ng/insect |  |  | 1275 ng/insect |  |  |  | 80% | 80% | 95% |  |
| Cc1c(COC(=O)[C@H]2[C@@H](C=C(Cl)C(F)(F)F)C2(C)C)cccc1-c1ccco1 (relative stereo) [m, [3-(2-furanyl)-2-methylphenyl]methyl cis-3-(2-chloro-3,3,3-trifluoro-1-propenyl)-2,2-dimethylcyclopropanecarboxylate] | 286 ng/insect | 100% | 56 ng/insect | 100% |  | 100% | 75% | 43 ng/insect | 100% | 100% | 149 ng/insect |  | 0% |  |  |  |  | 46 ng/insect |

Reference: patent US4426524A, “Heterocyclic substituted benzyl alcohol, insecticidal ester derivatives, and intermediates” (priority 1982, dated 1984)
